These results are taken from patent publication US10112968B2, “Inhibitors of protein methyltransferase DOT1L and methods of use thereof” (Epizyme, Inc., priority 2012, dated 2018).

Entries after “also recorded” stand apart in the source; their conditions may differ. Where only a bound is given, the exact number is not on record here.

The subject of data set [1] is MV4-11 xenograft tumors. Kind of data set: MV4-11 nude rat subcutaneous xenograft model of MLL-rearranged leukemia. Format: in vivo. The procedure:
Four groups of 10 (Groups 1, 2, 3, and 4 female RH nu/nu rats (7 weeks old, weighing 120-160 g) bearing MV4-11 xenograft tumors of sizes ranging from 300-600 mm^3 were implanted with a catheter in the femoral vein). The infusion flow rate was set at 1,500 μL/hour/kg and was adjusted to the most recent mean body weight of each treatment group (as an example, the infusion flow rate was 300 μL/hour for a group of rats having a mean body weight of 200 g). Group 1 received vehicle via a 21-day continuous IV infusion. Group 2 received 21-day continuous IV infusion of the test substance at 35 mg/kg/day. Group 3 received a daily 8-hour continuous IV infusion of the test substance at 67 mg/kg/day for 21 consecutive days. Between two IV infusions of the test substance, the rats were kept under IV infusion with NaCl 0.9% solution. Group 4 received a 21-day continuous IV infusion of the test substance at 70 mg/kg/day. Syringes used for the IV infusion were replaced every day.
The rats were terminated when the subcutaneous tumor reached a maximum volume of 9,000 mm^3 or at a maximum of 55 days after tumor cells injection.

Data set [2] can be described thus: Pharmacokinetic half-life in systemic circulation, rats. Format: in vivo.
For data set [3], the system named is other histone methyl marks. Kind of data set: Effect on other histone methyl marks in cells. Format: cell-based.
Data set [4] concerns leukemia cell lines without the chromosomal rearrangement of the MLL gene. As to the kind of experiment: Antiproliferative effect on leukemia cell lines without MLL rearrangement. Format: cell-based.
Data set [5] has as its system MLL-rearranged leukemia cells. Kind of data set: Cell killing in MLL-rearranged leukemia cells. Format: cell-based.
The nature of data set [6]: Pharmacokinetic half-life in systemic circulation, dogs. The format is in vivo.
The subject of data set [7] is H3K79 methylation. As to the kind of experiment: H3K79 methylation in treated leukemia cells. The format is cell-based. Particulars: treatment of leukemia cells.
Data set [8] concerns the target T1, DOT1L (Homo sapiens (Human), UniProt Q8TEK3). As to the kind of experiment: DOT1L enzymatic activity radiometric assay (methyl transfer from SAM to chicken erythrocyte nucleosomes). Particulars: for IC50: read-out: DOT1L IC50; for alpha: global fit.
In data set [9] the test system is MV4-11 cells. As to the kind of experiment: Cell proliferation assay (Guava Viacount, 14 days). The format is cell-based. Conditions: Homo sapiens, 336 h, day 14, read-out: Cellular IC50 Proliferation.
For data set [10], the system named is HOXA9 mRNA in MV4-11 cells. Kind of data set: Quantitative real-time PCR analysis of HOXA9 message. Conditions: Homo sapiens, MV4-11, 144 h, read-out: Cellular IC50 HOXA9 mRNA. In general terms: Real-time PCR tracks product formation cycle by cycle.
The target of data set [11] is T1, DOT1L. Kind of data set: Ligand association and dissociation rate constants by surface plasmon resonance (SPR). Format: binding. Particulars: Kd calculated as koff/kon.
In data set [12] the test system is H3K79me2 in MV4-11 cells. Kind of data set: H3K79me2 quantitative ELISA. Particulars: Homo sapiens, MV4-11, 96 h, read-out: Cellular IC50 H3K79 Methylation. In general terms: In an ELISA, binding on a coated surface is turned into a signal by an enzyme label.
Data set [13] concerns MLL-rearranged leukemia. Kind of data set: Aggressive, disseminated mouse model of MLL-rearranged leukemia. Conditions: as previously described. Format: in vivo.

T1 sequence (Q8TEK3 whole entry): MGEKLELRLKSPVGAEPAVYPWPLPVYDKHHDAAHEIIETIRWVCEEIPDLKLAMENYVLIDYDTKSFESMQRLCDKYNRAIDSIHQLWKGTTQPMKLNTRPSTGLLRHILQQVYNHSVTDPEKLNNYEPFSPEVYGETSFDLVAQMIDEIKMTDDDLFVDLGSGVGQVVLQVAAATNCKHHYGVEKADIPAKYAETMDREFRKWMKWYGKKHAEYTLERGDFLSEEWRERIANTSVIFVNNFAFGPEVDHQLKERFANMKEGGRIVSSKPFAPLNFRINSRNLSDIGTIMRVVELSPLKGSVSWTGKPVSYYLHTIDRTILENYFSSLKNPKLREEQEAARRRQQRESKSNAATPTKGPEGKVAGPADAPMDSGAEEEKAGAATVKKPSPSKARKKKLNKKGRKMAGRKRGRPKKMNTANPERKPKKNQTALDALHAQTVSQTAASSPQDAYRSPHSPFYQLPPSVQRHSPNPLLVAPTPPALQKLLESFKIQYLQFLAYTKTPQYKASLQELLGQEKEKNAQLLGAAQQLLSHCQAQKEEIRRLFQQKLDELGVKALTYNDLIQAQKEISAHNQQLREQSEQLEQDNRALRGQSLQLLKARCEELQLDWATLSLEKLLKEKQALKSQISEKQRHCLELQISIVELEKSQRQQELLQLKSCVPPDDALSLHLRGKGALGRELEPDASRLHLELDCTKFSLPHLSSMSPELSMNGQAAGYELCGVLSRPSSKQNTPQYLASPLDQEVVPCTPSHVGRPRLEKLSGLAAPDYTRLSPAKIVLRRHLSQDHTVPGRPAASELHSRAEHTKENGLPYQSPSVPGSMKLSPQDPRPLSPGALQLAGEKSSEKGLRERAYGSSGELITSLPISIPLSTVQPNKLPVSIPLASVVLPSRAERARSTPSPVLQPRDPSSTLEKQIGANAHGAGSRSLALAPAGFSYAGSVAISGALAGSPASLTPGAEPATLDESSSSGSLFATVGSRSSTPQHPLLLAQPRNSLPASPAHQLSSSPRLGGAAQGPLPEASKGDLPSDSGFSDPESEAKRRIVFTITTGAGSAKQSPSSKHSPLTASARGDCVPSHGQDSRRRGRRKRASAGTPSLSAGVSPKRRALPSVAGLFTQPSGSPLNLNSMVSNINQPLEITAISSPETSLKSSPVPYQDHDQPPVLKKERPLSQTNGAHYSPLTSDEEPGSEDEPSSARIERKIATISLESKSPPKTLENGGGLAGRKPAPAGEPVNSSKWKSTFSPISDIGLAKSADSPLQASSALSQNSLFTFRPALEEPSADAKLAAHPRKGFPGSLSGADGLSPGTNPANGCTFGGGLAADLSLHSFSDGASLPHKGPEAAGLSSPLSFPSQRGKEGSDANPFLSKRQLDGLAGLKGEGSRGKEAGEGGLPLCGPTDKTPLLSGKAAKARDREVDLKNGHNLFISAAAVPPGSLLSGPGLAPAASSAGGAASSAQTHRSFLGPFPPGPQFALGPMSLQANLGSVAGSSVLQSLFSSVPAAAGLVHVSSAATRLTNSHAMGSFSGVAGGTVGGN

Consider `CC(C)N(C[C@H]1O[C@@H](n2cnc3c(N)ncnc32)[C@H](O)[C@@H]1O)[C@H]1C[C@@H](CCc2nc3cc(C(C)(C)C)ccc3[nH]2)C1` [Compound A2, (2R,3R,4S,5R)-2-(6-amino-9H-purin-9-yl)-5-((((1r,3S)-3-(2-(5-(tert-butyl)-1H-benzo[d]imidazol-2-yl)ethyl)cyclobutyl)(isopropyl)amino)methyl)tetrahydrofuran-3,4-diol], for which the anti-tumor activity result in [1] (continuous intravenous infusion for 21 days, FIG. 1) was “dose-dependent anti-tumor activity; also recorded: complete and sustained tumor regression”. Also, the “time with no regrowth after the cessation of treatment” value in [1] (highest dose (70 mg/kg/day)) is “up to 32 days”. Also, the tumor regressions entry in data set [1] (highest dose (70 mg/kg/day), 21-day continuous IV infusion) is “complete tumor regressions”. Further, the “weight loss or toxicity during efficacy study” value in data set [1] (rats) is “No significant weight loss or obvious toxicity”. Also, the “effective pharmacokinetic half-life in systemic circulation” value in data set [2] amounted to 15 min; in [6], 90 min. Moreover, the “effect on other histone methyl marks / methylation status of other histone sites” value in data set [3] is given as “without effect”. For the same compound, the “impact on non-rearranged cells” value in data set [4] is “minimal impact”. The cell killing result in data set [5] is “selective, apoptotic cell killing”. In data set [7], the H3K79 methylation result is “concentration- and time-dependent diminution”.

`CC(C)N(C[C@H]1O[C@@H](n2ccc3c(N)ncnc32)[C@H](O)[C@@H]1O)[C@H]1C[C@H](CCc2nc3cc(C(C)(C)C)ccc3[nH]2)C1` [Compound A75, (2R,3R,4S,5R)-2-(4-amino-7H-pyrrolo[2,3-d]pyrimidin-7-yl)-5-((((1s,3R)-3-(2-(5-(tert-butyl)-1H-benzo[d]imidazol-2-yl)ethyl)cyclobutyl)(isopropyl)amino)methyl)tetrahydrofuran-3,4-diol]: in [8], the IC50 stood at 0.00059 µM.

On to `CN(C[C@H]1O[C@@H](n2ccc3c(N)ncnc32)[C@H](O)[C@@H]1O)[C@H]1C[C@@H](CCc2nc3cc(C(C)(C)C)ccc3[nH]2)C1` [Compound A86, (2R,3R,4S,5R)-2-(4-amino-7H-pyrrolo[2,3-d]pyrimidin-7-yl)-5-((((1r,3S)-3-(2-(5-(tert-butyl)-1H-benzo[d]imidazol-2-yl)ethyl)cyclobutyl)(methyl)amino)methyl)tetrahydrofuran-3,4-diol], for which, in data set [8], the IC50 was found to be 0.00062 µM.

Regarding `CC(C)N(C[C@H]1O[C@@H](n2cnc3c(N)ncnc32)[C@H](O)[C@@H]1O)[C@H]1C[C@@H](CCc2nc3cc(Cl)c(C(F)(F)F)cc3[nH]2)C1` [Compound A5, (2R,3R,4S,5R)-2-(6-amino-9H-purin-9-yl)-5-((((1r,3S)-3-(2-(5-chloro-6-(trifluoromethyl)-1H-benzo[d]imidazol-2-yl)ethyl)cyclobutyl)(isopropyl)amino)methyl)tetrahydrofuran-3,4-diol], the IC50 in data set [8] is 0.00059 µM.

For orientation: Ki means a dissociation constant, usually derived from enzyme kinetics or from competition with a known ligand. Compound `CN(CCNC(=O)OCC1c2ccccc2-c2ccccc21)C[C@H]1OC(n2cnc3c(N)ncnc32)[C@H](O)[C@@H]1O` (some centres unmarked) [Compound C64] gave a Ki in data set [8] of 20 µM.

Regarding `CC(C)N(C[C@H]1O[C@@H](n2ccc3c(N)ncnc32)[C@H](O)[C@@H]1O)[C@H]1C[C@@H](CCc2nc3cc(OC(F)(F)F)ccc3[nH]2)C1` [Compound A87, (2R,3R,4S,5R)-2-(4-amino-7H-pyrrolo[2,3-d]pyrimidin-7-yl)-5-((isopropyl((1r,3S)-3-(2-(5-(trifluoromethoxy)-1H-benzo[d]imidazol-2-yl)ethyl)cyclobutyl)amino)methyl)tetrahydrofuran-3,4-diol], the IC50 in data set [8] was found to be 0.0008 µM.

What is called Kd is the constant that tells how readily two partners part at equilibrium. Turning to `CN(CCNC(=O)Nc1ccc(C(C)(C)C)cc1)C[C@H]1O[C@@H](n2cnc3c(N)ncnc32)[C@H](O)[C@@H]1O` [Compound C94], the figures for the IC50 in [9], in data set [10] and in [12] were over 50 µM, over 50 µM and 28 ± 25 µM, respectively. The compound further came in with an inhibitory constant (Ki) in data set [8] of 0.845 µM. In addition, the Kd in data set [11] is 0.167 ± 0.1 µM.

For `CC(C)N(CCCNC(=O)Nc1ccc(C(C)(C)C)cc1)C[C@H]1OC(n2ccc3c(N)ncnc32)C(O)[C@@H]1O` (some centres unmarked) [Compound D16], the IC50 in data set [9] amounted to 0.146 ± 0.072 µM; in data set [10], 0.83 ± 0.17 µM; in data set [12], 0.005 ± 0.003 µM. The survival entry in data set [13] is recorded as “statistically significant survival advantage”. For the same compound, in data set [8], the “inhibition modality with respect to SAM” value is reported as “competitive inhibitor”. In data set [8], the “inhibition modality with respect to nucleosome” value was “noncompetitive inhibitor”. In addition, the alpha in data set [8] (FIG. 2A, varied SAM concentration) amounted to 10±6; in [8] (FIG. 2B, varied oligonucleosome concentration), 0.5±0.2. The same compound registered a ΔΔGbinding in [8] (between C118 and D16, at 25° C.) of 10 to 12.1 kJ/mol.
